Earlier results in patent US20210121528A1, “COMPOSITIONS FOR TREATING LUNG INFECTIONS BY AIRWAY ADMINISTRATION” (priority 2014, published 2021).
Where two headings read alike, the source gives them in different places.

Key:
macrophages = conditions: in vitro incubation
[1] = test system: lethal pneumococcal pneumonia; conditions: local delivery, mice
[2] = not given; remark: listed apart in the source
[3] = in vivo, po
[4] = not given; remark: listed apart in the source
[5] = test system: strains of organisms from the susceptible genera
[6] = human, in vivo
[7] = test system: Staphylococcus, Streptococcus, Neisseria, Escherichia, Proteus (indole-negative), Serratia, Salmonella, Shigella, Pseudomonas, Haemophilus, Vibrio, and …; conditions: aerobic genera
[8] = test system: Moraxella catarrhalis, Burkholderia cepacia, Mycobacterium spp. and Stenotrophomonas maltophilia
[9] = test system: polymorphonuclear leukocytes
Prevotella = conditions: anaerobic genus
[10] = test system: mammalian cells and organs
[11] = test system: Veillonella and Fusobacterium; conditions: anaerobic genera
[12] = test system: methicillin-resistant Staphylococcus aureus and extended spectrum 13-lactamase (ESBL) enterobacteria; conditions: resistant bacteria

For “GM-CSF: Monomeric protein of 127 amino-acid residues, colony-stimulating factor; SEQ ID NO: 2 mature human form”, the “time for transformation of a resting macrophage into a fully immunocompetent dendritic cell” value (macrophages) is given as “approximately 10 days” and the “protection from lethal pneumococcal pneumonia” value [1] is given as “protects”.
For `C[C@@H]1O[C@@H]1P(=O)(O)O.NC(CO)(CO)CO` [Fosfomycin trometamol], the “irritation of the stomach / oral tolerability” value (oral) is given as “well tolerated”, the solubility in water [2] is given as “highly soluble” and the bioavailability [3] is given as “about 40%”. The “pH of 5% solution” value [4] was 3.5-5.5.
In the case of `C[C@@H]1O[C@@H]1P(=O)(O)O` [Fosfomycin calcium monohydrate], the “irritation of the stomach / oral tolerability” value (in vivo, po) is listed as “less irritating to the stomach”, the solubility in water [2] is listed as “sparingly soluble” and the “pH of 0.4% solution” value ([4]; 0.4% solution) is listed as 8.1-9.6.
For `C[C@@H]1O[C@@H]1P(=O)(O)O` [fosfomycin, [(2R,3S)-3-methyloxiran-2-yl]phosphonic acid], the “synergistic effect, share of tested strains” value ([5]; early studies, various antibiotic combinations) is listed as 70-100%, the synergy rates ([5]; subsequent more extensive studies) is listed as 36-74% and the eosinophilia [6] is listed as 0.2%. The transient rashes [6] was 0.3 % of cases, the “transiently raised liver enzymes” value [6] was 0.3 % of cases and the bactericidal activity [7] was “active”. The bactericidal activity [8] was “less active”, the “concentration in polymorphonuclear leukocytes relative to the extracellular fluid” value [9] was “twice” and the bactericidal activity (Prevotella) was “moderately active”. For the same molecule, the “toxicity to mammalian cells and organs” value [10] was “remarkably non-toxic”, the bactericidal activity [11] was “active” and the bactericidal activity [12] was “active”.
In the case of `C[C@@H]1O[C@@H]1P(=O)(O)O` [Fosfomycin disodium], the “irritation of the stomach / oral tolerability” value (in vivo, po) is listed as “irritant to the stomach”, the solubility in water [2] is listed as “highly soluble” and the “pH of 5% solution” value [4] is listed as 9.0-10.5.
